According to US8901308B2, “Triazole compounds that modulate Hsp90 activity” (Synta Pharmaceuticals Corp., priority 2004, dated 2014):

Assays:
[1] = test system: Her2, an Hsp90 client protein; test: Degradation of Her2 in BT-474 cells (Western blot); assay type: cell-based, Human; conditions: overnight
Method: Human high-Her2 breast carcinoma BT474 (HTB-20), SK-BR-3 (HTB-30) and MCF-7 breast carcinoma (HTB-22) from American Type Culture Collection, VA, USA were grown in Dulbecco's modified Eagle's medium with 4 mM L-glutamine and antibiotics (100 IU/ml penicillin and 100 ug/ml streptomycine; GibcoBRL). To obtain exponential cell growth, cells were trypsinized, counted and seeded at a cell density of 0.5×10^6 cells/ml regularly, every 3 days. All experiments were performed on day 1 after cell passage.
After treatment, each cytoplasmic sample was prepared from 1×10^6 cells by incubation of cell lysis buffer (#9803, cell Signaling Technology) on ice for 10 minutes. The resulting supernatant used as the cytosol fractions were dissolved with sample buffer for SDS-PAGE and run on a SDS-PAGE gel, blotted onto a nitrocellulose membrane by using semi-dry transfer. Non-specific binding to nitrocellulose was blocked with 5% skim milk in TBS with 0.5% Tween at room temperature for 1 hour, then probed with anti-Her2/ErB2 mAb (rabbit IgG, #2242, Cell Signaling) and anti-Tubulin (T9026, Sigma) as housekeeping control protein. HRP-conjugated goat anti-rabbit IgG (H+L) and HRP-conjugated horse anti-mouse IgG (H+L) were used as secondary Ab (#7074, #7076, Cell Signaling) and LumiGLO reagent, 20× Peroxide (#7003, Cell Signaling) was used for visualization.

[2] = test system: human tumor cell line MDA-MB-435S; test: MDA-MB-435S nude mouse xenograft model; assay type: in vivo; conditions: 300 mg/kg body weight IP, 5 times per week for 3 weeks
Method: FBS was obtained from Sigma-Aldrich Corp. (St. Louis, Mo., USA), and all other reagents were obtained from Invitrogen Corp. (Carlsbad, Calif., USA). Approximately 4−5×10(6) cells that had been cryopreserved in liquid nitrogen were rapidly thawed at 37° C. and transferred to a 175 cm^2 tissue culture flask containing 50 ml of growth media and then incubated at 37° C. in a 5% CO2 incubator. The growth media was replaced every 2-3 days until the flask became 90% confluent, typically in 5-7 days. To passage and expand the cell line, a 90% confluent flask was washed with 10 ml of room temperature phosphate buffered saline (PBS) and the cells were disassociated by adding 5 ml 1× Trypsin-EDTA (Invitrogen) and incubating at 37° C. until the cells detached from the surface of the flask. To inactivate the trypsin, 5 ml of growth media was added and then the contents of the flask were centrifuged to pellet the cells. The supernatant was aspirated and the cell pellet was resuspended in 10 ml of growth media and the cell number determined using a hemocytometer. […]
Six to eight week old, female Crl:CD-1-nuBR (nude) mice were obtained from Charles River Laboratories (Wilmington, Mass., USA). […] Tumor volumes (V) were calculated by caliper measurement of the width (W), length (L) and thickness (T) of tumors using the following formula: V=[…]×(L×W×T). […]

## CCc1cc(-c2nnc(S)n2-c2cccc3ccccc23)c(O)cc1O [Compound 49, 3-(2,4-Dihydroxy-5-ethyl-phenyl)-4-(naphthalen-1-yl)-5-mercapto-[1,2,4] triazole]
[1]; 0.5 μM
  Degradation of Her2: partial degradated
[1]; 2 μM
  Degradation of Her2: complete degradation
[1]; 5 μM
  Degradation of Her2: complete degradation
[2]
  Toxicity (effect on body weights): not associated with significant toxicity
[2]; compared with 100 mg/kg 17-AAG
  Growth rate of MDA-MB-435S tumors: decreased the growth rate
